How the values were obtained:
LoVo cell = experiment: Inhibition of proliferation of LoVo cell, CCK-8 method; type: cell-based; settings: Homo sapiens, 72 h, CCK-8, 3 days, read-out: IC50, inhibitory effect on the proliferation of LoVo cell
Experimental: Determination of the Inhibitory Effect of Compounds on the Proliferation of LoVo Cell Using CCK-8 Method
(§1) The cells were digested by trypsinase and centrifuged at 800 rpm for 5 minutes, the supernatant was discarded, and the residual was resuspended with fresh medium and counted. The cells were seeded into 96-well cell culture plate with a density of 6000 cells per well and incubated overnight in a 5% C02 incubator at 37° C. The stock solutions of test compounds were serially diluted to 8 concentrations by DMSO at the ratios of 1:3 and 1:10, respectively. The final concentration of compound was: 10 μM, 3.3 μM, 1 μM, 0.33 μM, 0.1 μM, 0.033 μM, 0.01 μM and 0 μM. 5 μL diluent of each concentration was added to 120 μL of medium (25 times diluted) and mixed by shaking. The overnight cell plates were taken and the culture medium was removed, 195 μL of fresh medium was added to each well, and 5 μL of diluted medium containing the corresponding concentration of the test compound was added respectively (the final concentration of DMSO is 1‰), and the culture plate was then placed in a 5% CO2 incubator at 37° C. for 3 days. After removing the original solution, 90 μL of fresh serum-free 1640 medium was added, then 10 μL of CCK-8 reagent was added to each well and continued incubation for 2 hours. The 96-well plates were placed in a multi-function reader to read the absorbance at the wavelength of 450/650 nm. Cell viability (%)=(ODcompound−ODbackground)/(ODDMSO−ODbackground)×100. GraphPad Prism 5.0 was used to analyze the data. The inhibitory activity of compounds on cell proliferation was plotted based on cell viability and the logarithm of compound concentration. The IC50 value was fitted by a sigmoidal dose response curve equation Y=100/(1+10^(Log C−Log IC50)), wherein C was the concentration of compound.
Table 2 summarizes the inhibitory effect data (IC50) of compounds on the proliferation of LoVo cell

Wee1 (h) = Wee1 (h) (Homo sapiens, UniProt P30291); experiment: Wee1(h) kinase activity experiment ([γ-33P]-ATP, filtermat, scintillation counting); type: biochemical; settings: 10 μM ATP, 40 minutes at room temperature; read-out: IC50, inhibitory effect on Wee1 kinase activity
Experimental: Determination of the Inhibitory Effect of Compounds on Wee1 Kinase Using Wee1(h) Kinase Activity Experiment
Wee1 (h) is incubated with 20 mM Tris/HCl pH 8.5, 0.2 mM EDTA, 500 μM […], 10 mM MgAcetate and 10 μM [γ-^33P]-ATP. Then 50 times the concentration of the testing compound in 100% DMSO was added until the final concentration was 10 μM, then mixed, and diluted to 10 concentrations in successive series according to the ratio of 1:3 and 1:10 respectively (the last concentration was DMSO negative control): 10 μM, 3 μM, 1 μM, 0.3 μM, 0.1 μM, 0.03 μM, 0.01 μM, 0.003 μM, 0.001 μM, 0 μM. The reaction is initiated by the addition of the Mg/ATP mix. After incubation for 40 minutes at room temperature, the reaction is stopped by the addition of phosphoric acid to a concentration of 0.5%. 10 μL of the reaction liquor is then spotted onto a P30 filtermat and washed four times in 0.425% phosphoric acid and once in methanol prior to drying and scintillation counting. Each compound sample is duplicated in duplicate. The negative control was the components except of Wee1 enzyme, and the positive control was the components of adding 30% phosphoric acid to terminate the reaction. Table 1 summarizes the inhibitory effects of compounds on Wee1 kinase activity (IC50).

NCI-H1299 cell = experiment: Inhibition of proliferation of NCI-H1299 cell, CCK-8 method; type: cell-based; settings: Homo sapiens, NCI-H1299, 72 h; CCK-8, 3 days; read-out: IC50, inhibitory effect on the proliferation of NCI-H1299 cell
Experimental: Determination of the Inhibitory Effect of Compounds on the Proliferation of NCI-H1299 Cell Using CCK-8 Method
as §1, with “1000” for “6000”, “CO2” for “C02”
Table 3 summarizes the inhibitory effect data (IC50) of compounds on the proliferation of NCI-H1299 cell.

advanced solid tumors = settings: cited from earlier work
[1] = 176 evaluable patients, AZD1775 alone or in combination with chemotherapy

Chain of Wee1 (h) (P30291 whole entry): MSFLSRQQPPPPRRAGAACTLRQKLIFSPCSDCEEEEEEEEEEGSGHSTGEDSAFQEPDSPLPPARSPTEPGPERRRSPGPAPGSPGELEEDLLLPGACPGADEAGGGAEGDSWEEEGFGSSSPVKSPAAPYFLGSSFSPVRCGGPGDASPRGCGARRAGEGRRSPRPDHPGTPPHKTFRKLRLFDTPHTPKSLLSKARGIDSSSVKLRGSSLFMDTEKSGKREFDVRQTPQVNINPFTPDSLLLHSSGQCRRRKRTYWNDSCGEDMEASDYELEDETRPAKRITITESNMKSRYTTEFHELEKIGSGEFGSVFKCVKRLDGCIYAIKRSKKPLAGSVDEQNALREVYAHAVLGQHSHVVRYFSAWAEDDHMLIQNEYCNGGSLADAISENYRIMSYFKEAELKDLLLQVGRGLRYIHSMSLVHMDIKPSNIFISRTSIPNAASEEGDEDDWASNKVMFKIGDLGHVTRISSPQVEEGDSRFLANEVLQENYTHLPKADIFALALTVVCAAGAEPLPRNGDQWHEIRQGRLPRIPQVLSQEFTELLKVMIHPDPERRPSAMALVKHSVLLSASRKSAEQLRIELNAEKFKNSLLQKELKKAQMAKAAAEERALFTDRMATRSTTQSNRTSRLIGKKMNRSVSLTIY

Row | SMILES | IC50 (LoVo cell) | IC50 (Wee1 (h)) | IC50 (NCI-H1299 cell) | patients with partial response (advanced solid tumors; [1]) | patients with stable disease as the best response (advanced solid tumors; [1]) | response rate in patients with TP53 mutation (advanced solid tumors; TP53 mutation (n=19)) | response rate in TP53 wild-type patients (advanced solid tumors; TP53 wild-type (n=33))
1 | Cc1cc(Nc2ncc3c(n2)N2CCN=C2N(c2c(Cl)cccc2Cl)C3=O)ccc1N1C[C@H](C)N(C)[C@@H](C)C1 [Example 8, 6-(2,6-dichlorophenyl)-2-((3-methyl-4-((3S,5S)-3,4,5-trimethylpiperazin-1-yl)phenyl)amino)-8,9-dihydroimidazo[1,2-a]pyrimido[5,4-e]pyrimidin-5(6H)-one] | 163 nM | 30 nM | 214 nM |  |  |  | 
2 | Cc1cc(Nc2ncc3c(n2)N2CCN=C2N(c2c(Cl)cccc2Cl)C3=O)ccc1C1CCN(C)CC1 [Example 12, 6-(2,6-dichlorophenyl)-2-((3-methyl-4-(1-methylpiperidin-4-yl)phenyl)amino)-8,9-dihydroimidazo[1,2-a]pyrimido[5,4-e]pyrimidin-5(6H)-one] | 78 nM | 23 nM | 79 nM |  |  |  | 
3 | [2H]C([2H])([2H])N1[C@H](C)CN(c2ccc(Nc3ncc4c(n3)N3CCN=C3N(c3c(Cl)cccc3Cl)C4=O)cc2C)C[C@@H]1C [Example 2, 6-(2,6-dichlorophenyl)-2-((4-((3S,5R)-3,5-dimethyl-4-(methyl-d3)piperazin-1-yl)-3-methylphenyl)amino)-8,9-dihydroimidazo[1,2-a]pyrimido[5,4-e]pyrimidin-5(6H)-one] | 158 nM | 21 nM | 123 nM |  |  |  | 
4 | C[C@@H]1CN(c2ccc(Nc3ncc4c(n3)N3CCN=C3N(c3c(Cl)cccc3Cl)C4=O)cc2Br)C[C@H](C)N1C [Example 3, 2-((3-bromo-4-((3S,5R)-3,4,5-trimethylpiperazin-1-yl)phenyl)amino)-6-(2,6-dichlorophenyl)-8,9-dihydroimidazo[1,2-a]pyrimido[5,4-e]pyrimidin-5(6H)-one] | 219 nM |  | 382 nM |  |  |  | 
5 | C=CCn1c(=O)c2cnc(Nc3ccc(N4CCN(C)CC4)cc3)nc2n1-c1cccc(C(C)(C)O)n1 [AZD1775] |  |  |  | 10% | 53% | 21% | 12%
6 | Cc1cc(Nc2ncc3c(n2)N2CCN=C2N(c2c(Cl)cccc2Cl)C3=O)cc(F)c1C1CCN(C)CC1 [Example 13, 6-(2,6-dichlorophenyl)-2-((3-fluoro-5-methyl-4-(1-methylpiperidin-4-yl)phenyl)amino)-8,9-dihydroimidazo[1,2-a]pyrimido[5,4-e]pyrimidin-5(6H)-one] | 73 nM | 26 nM | 85 nM |  |  |  | 
7 | Cc1cc(Nc2ncc3c(n2)N2CCN=C2N(c2c(Cl)cccc2Cl)C3=O)ccc1C1CCNCC1 [Example 9, 6-(2,6-dichlorophenyl)-2-((3-methyl-4-(piperidin-4-yl)phenyl)amino)-8,9-dihydroimidazo[1,2-a]pyrimido[5,4-e]pyrimidin-5(6H)-one] | 533 nM | 23 nM | 940 nM |  |  |  | 
8 | Cc1cc(Nc2ncc3c(n2)N2CCN=C2N(c2c(Cl)cccc2Cl)C3=O)cc(F)c1N1C[C@@H](C)N(C)[C@@H](C)C1 [Example 5, 6-(2,6-dichlorophenyl)-2-((3-fluoro-5-methyl-4-((3S,5R)-3,4,5-trimethylpiperazin-1-yl)phenyl)amino)-8,9-dihydroimidazo[1,2-a]pyrimido[5,4-e]pyrimidin-5(6H)-one] | 124 nM |  | 182 nM |  |  |  | 
9 | Cc1cc(Nc2ncc3c(n2)N2CCN=C2N(c2c(Cl)cccc2Cl)C3=O)ccc1N1C[C@@H](C)N[C@@H](C)C1 [Example 1, 6-(2,6-dichlorophenyl)-2-((4-((3S,5R)-3,5-dimethylpiperazin-1-yl)-3-methylphenyl)amino)-8,9-dihydroimidazo[1,2-a]pyrimido[5,4-e]pyrimidin-5(6H)-one] | 126 nM | 37 nM | 71 nM |  |  |  | 
